Test results from patent publication US7709002B1, “Mutated ras peptides for generation of CD8+Cytotoxic T lymphocytes” (The United States of America as represented by the …, priority 1996, dated 2010).

Tests used:
human HLA-A2 = biological target: T1, human HLA-A2 (Homo sapiens, UniProt P04439, D140Y/D185E/D98H/E176V/E277Q/G131W/G231S/I119V/I121R/I166T/I218V/L300P/L318F/N151K/N90K/P208A/P217A/Q86G/Q94H/R138H/R169H/T345S); assay: HLA-A2 binding bioassay on T2 cells (flow cytometry); conditions: T2 bioassay
T1 construct: The 174CEM.T2 cell line (“T2”), (transport deletion mutant); endogenous in cells; host or cells: 174CEM.T2 (T2) human cell line

[1] = test system: HLA-A2+ peptide-pulsed targets; assay: Generation and cytotoxicity of ras4-12(V12)-specific CD8+ CTL line from a normal HLA-A2+ donor; type: cell-based, human; conditions: wild-type printed as wild-type ras peptide
[2] = test system: CD4+ T cell line of patient 29; assay: Lymphoproliferation (3H-thymidine uptake) of PBMC cultures / CD4+ T cell line of patient 29; type: cell-based, human
Source text: In vitro stimulation (IVS) cycles for evaluation of CD4^+ T cell responses. IVS cycles were established to: (i) amplify detection of a low proliferative response, (ii) compare “pre-immune” to “post-immune” lymphocytes over a period to time for assessment of potential peptide-specific reactivity, and (iii) derive peptide-specific CD4^+ T cell lines in culture for detailed phenotypic and functional characterization. […]
Proliferation response. […] Cells were collected with a TOMTEC MACH II 96 harvester (Wallace, Inc., Gaithersburg, Md.) and incorporated radioactivity was measured by liquid scintillation spectroscopy (1205 Betaplate flat bed LS counter; Wallace). MHC class I or II restriction was analyzed in MAb blocking experiments using anti-HLA-A, B, C (clone G46-2.6) or anti-HLA-DR, anti-HLA-DP or anti-HLA-DQ (clones TU36, HI43 or TU169, respectively) (all from Pharmingen). […] Results were expressed as the mean cpm±SEM of triplicate cultures or stimulation index, which was calculated by dividing the cpm of experimental cultures (means counts of triplicate wells) by the cpm of unstimulated control cultures (mean counts of triplicate wells).

[3] = test system: CD4+ T cell line of RAS patient 43; assay: Lymphoproliferation (3H-thymidine uptake) of PBMC cultures / CD4+ T cell line of RAS patient 43; type: cell-based, human; conditions: for Proliferation Response cpm(± SEM) / Proliferation Response SI (stimulation index): 4th IVS
[4] = test system: CD4+ T cell line of RAS patient 43; assay: Proliferation of patient 43 CD4+ T cell line to ras protein from tumor cell extracts captured on pan-ras MAb RAS 10 and presented by autologous BLCL; type: cell-based, human
[5] = test system: C1R-A2 targets / autologous EBV-B cells as targets of CD8+ CTL line of patient 29; assay: 51Cr-release cytotoxicity of CD8+ CTL line of patient 29 against C1R-A2 or autologous EBV-B targets; type: cell-based, human; conditions: patient 29 lymphocytes after IVS cycle 7 (FIG. 9A)
Description: FIGS. 9A and 9B. Production of a peptide-specific CD8^+ T cell line from post-vaccinated lymphocytes of patient 29. FIG. 9A: A CD8^+ CTL line was established from post-vaccinated PBMC of patient 29 and assayed for peptide specificity against C1R-A2 targets. Cytotoxicity was determined by ^51Cr-release, and the results expressed at different effector/target ratios following IVS cycle 7. FIG. 9B: Using this CD8^+ CTL line, the requirement for HLA-A2 in peptide presentation (by autologous EBV-B cells as targets) was determined in blocking experiments using MAb (clone BB7.2; ascites=1:30 dilution) directed against that molecule (or using an isotype-matched MAb). […] CD4 and CD8 MAbs were as described for FIGS. 8A and 8b. Control lysis in the absence of peptide or in the presence of ras5-14(Gly12) was <3%.
(§1) Cytotoxic response. Cytotoxicity was examined by a conventional ^51Cr-release assay, as described (6). […] After incubation, supernatants were collected using a Supernatant Collection System (Skatron, Sterling, Va.) and radioactivity measured in a γ-counter (Packard Instruments, Downers Grove, Ill.). Cytotoxic activity was defined as percent specific release of ^51Cr and determined by the equation: [(experimentalcpm−spontaneouscpm)/maximumcpm−spontaneouscpm)]×100. Results were expressed as the mean±SEM of triplicate cultures. […]

[6] = test system: SW480 colon carcinoma cell line (HLA-A2+, rasVal12+); assay: 51Cr-release cytotoxicity of CTL against SW480 colon carcinoma cells; type: cell-based, human
Description: FIGS. 10A and 10B. Anti-ras Val12-specific CTL from patient 29 lyse SW480 tumor targets in the absence of exogenous peptide. FIG. 10A: Anti-ras Val12-specific CD8^+ CTL from patient 29 were assayed against the SW480 colon carcinoma cell line (HLA-A2^+, rasVal12+) in the absence of exogenous peptide, with or without IFN-γ pretreatment (250 U/ml for 24 hr) of the target cells. CD8^+ CTL reactive with the […] peptide were used as an irrelevant effector cell population. Cytotoxicity was determined by ^51Cr-release, and the results expressed at different effector/target ratios. FIG. 10B: In parallel to 10A, anti-ras or anti-MART-1-specific CTL were assayed against SW480 (±IFN-γ pretreatment) at an effector/target ratio of 10/1 in the absence or presence of exogenous peptide (5 μg/ml). […] Flow cytometric analysis of SW480 cells for expression of HLA-A2: untreated=65.4% with MFI of 29.8; IFN-γ-pretreated=99.5% with MFI of 349.6. Flow cytometric analysis of SW480 cells for expression of ICAM-1: untreated=16.0% with MFI of 30.3; IFN-γ-pretreated=98.6% with MFI of 181.9.
as §1
Studies were also carried out to determine whether such peptide-induced CD8^+ CTL could recognize a processed form of the corresponding mutant ras protein. […] In contrast to the CD4^+ analysis, which measured lymphoproliferation to soluble protein, the CD8^+ CTL analysis reflected lytic ability against SW480 cells harboring the naturally-occurring mutation in the absence of exogenously added peptide. […]

[7] = test system: T2 cell line as target of CD8+ CTL line of RAS patient 32; assay: 51Cr-release cytotoxicity of CD8+ CTL line of RAS patient 32 against peptide-pulsed T2 targets; type: cell-based, human; conditions: peptide 10 μg/ml, IVS cycle 7 (FIG. 5)
Description: FIG. 5. Cytolytic activity by CD8^+ CTL line of RAS patient 32 is peptide-specific. The CD8^+ CTL line of RAS patient 32 (see FIG. 3) was assayed against the T2 cell line as a target, incubated with and without different ras peptides (10 μg/ml), as shown. In parallel, the extent of NK activity was evaluated against K562 cells. Cytotoxicity was determined by ^51Cr-release, and the results expressed at different E/T ratios following IVS cycle 7. Similar results were observed using the second, independently-derived CD8^+ CTL line as described in Table 6.
IVS cycles for evaluation of CD8^+ T cell responses from HLA-A2+Patients. Freshly-thawed PBMC (from ras patients 32 and 33), derived pre-vaccination and post-third vaccination, were enriched in T lymphocytes by passage over nylon wool columns (Robbins Scientific, Sunnyvale, Calif.) and then depleted of CD4^+ T cells by negative selection via panning on anti-CD4 MAb-coated T25 flasks (Applied Immune Sciences, Santa Clara, Calif.). For the first IVS cycle, CD8^+ enriched lymphocytes (5×10^5/well) were cultured in 24-well plates with irradiated, autologous PBMC (5×10^6/well) as APC which had been preincubated for 3 hours with the appropriate mutant ras peptide ([…]) plus human β2-microglobulin (10 μg/ml) (Calbiochem, San Diego, Calif.). […] IL-2 (10 U/ml) was added 3 days later. After an additional 7 days, viable cells (2-5×10^5/well) were re-cultured by weekly stimulation with APC pre-pulsed with peptide/β2-microglobulin, and IL-2 added one day later. After the third or fourth IVS cycle, autologous PBMC were replaced with EBV-transformed, autologous BLCL (5×10^5/well) as APC. […] CTL activity was evaluated from cultures 5 to 6 days after Ag restimulation.
Cytotoxic response. Cytotoxicity was examined by a conventional ^51Cr-release assay, as described (6). Briefly, target cells (i.e. T2, C1R-A2, BLCL, K562) were radiolabeled with 200 μCi of Na2[^51Cr]04 (Amersham) for 60 minutes at 37° C., followed by thorough washing to remove unincorporated isotope. Effectors and targets (1×10^4/well) were incubated in 96-well, U-bottomed plates (Costar) at various effector target (E/T) ratios in the absence and presence of peptide (+/−monoclonal antibody (MAb) directed against CD4, CD8 or HLA-A2 molecules (clone BB7.2 from ATCC)) for up to 6 hours. After incubation, supernatants were collected using a Supernatant Collection System (Skatron, Sterling, Va.) and radioactivity measured in a γ-counter (Packard Instruments, Downers Grove, Ill.). Cytotoxic activity was defined as percent specific release of ^51Cr and determined by the equation: [(experimentalcpm−spontaneouscpm)/maximumcpm−spontaneouscpm)]×100. Results were expressed as the mean±SEM of triplicate cultures. […]

[8] = Post-Immune culture, peptide 3 μg/ml
[9] = Post-Immune culture, peptide 10 μg/ml
[10] = Post-Immune culture, peptide 30 μg/ml
[11] = Pre-Immune culture, peptide 3 μg/ml
[12] = Pre-Immune culture, peptide 10 μg/ml
[13] = Pre-Immune culture, peptide 30 μg/ml
[14] = Pre-Immune culture, peptide 100 μg/ml

Substance: ras4-12(G12): proto-ras 9-mer sequence positions 4-12 with Gly at position 12 (YKLVVVGAG)
- Binding to HLA-A2 on T2 cells (in words) (human HLA-A2): failed to bind to HLA-A2
- Generation of peptide-specific CTL line / lysis of peptide-pulsed targets (in words) [1]: No lysis was detectable

Substance: Lys-Leu-Val-Val-Val-Gly-Ala-Gly-Gly-Val-Gly-Lys-Ser (KLVVVGAGGVGKS) [ras5-17(Gly12)]
- Proliferation, control culture (cpm±SEM) ([2]; T cells+EBV-B cells+peptide 3 μg/ml, IVS cycle 4 (FIG. 8B), without peptide 19,256±1926): 18,116±1474 cpm
- Peptide-induced proliferation of patient 29 post-vaccination PBMC (in words) ([2]; post-vaccination, following IVS (FIG. 8A)): no proliferative response was detectable
- Proliferation Response cpm(± SEM) ([3]; Post-Immune culture (post-third vaccination), peptide 100 μg/ml): 640 ± 23 cpm
- Proliferation Response SI (stimulation index) [3, 8]: 1.0
- Proliferation Response cpm(± SEM) [3, 8]: 694 ± 19 cpm
- Proliferation Response SI (stimulation index) [3, 9]: 1.1
- Proliferation Response cpm(± SEM) [3, 9]: 725 ± 27 cpm
- Proliferation Response SI (stimulation index) [3, 10]: 1.2
- Proliferation Response cpm(± SEM) [3, 10]: 819 ± 142 cpm
- Proliferation Response SI (stimulation index) ([3]; Post-Immune culture, peptide 100 μg/ml): 1.0
- Proliferation Response SI (stimulation index) [3, 11]: 0.9
- Proliferation Response cpm(± SEM) [3, 11]: 824 ± 255 cpm
- Proliferation Response SI (stimulation index) [3, 12]: 1.1
- Proliferation Response cpm(± SEM) [3, 12]: 768 ± 257 cpm
- Proliferation Response SI (stimulation index) [3, 13]: 1.0
- Proliferation Response cpm(± SEM) [3, 13]: 849 ± 14 cpm
- Proliferation Response SI (stimulation index) [3, 14]: 0.9
- Proliferation Response cpm(± SEM) [3, 14]: 790 ± 456 cpm
- Proliferation, control culture (cpm±SEM) ([3]; T cells+BLCL+peptide 10 μg/ml, IVS cycle 15 (FIG. 2B)): 7,690±383 cpm
- Proliferation Response cpm(± SEM) ([4]; Table 5: peptide 10 μg/ml, RAS 10 coating +, BLCL +): 8,844 ± 753 cpm
- Proliferation Response cpm(± SEM) ([4]; peptide 30 μg/ml, wells pre-coated with RAS 10, BLCL as APC): 8,130 ± 314 cpm

Substance: Lys-Leu-Val-Val-Val-Gly-Ala-Val-Gly-Val [ras5-14(Val12)]
- Peptide-specific lysis of C1R-A2 targets (in words) [5]: displayed peptide-specific, cell-mediated lysis
- Effect of exogenous peptide on anti-rasVal12 CTL-mediated lysis of SW480 ([6]; peptide 5 μg/ml, E/T 10/1 (FIG. 10B), control printed as wild-type ras peptide): enhanced
- Lysis of SW480 by anti-MART CTL in presence of exogenous peptide ([6]; with or without IFN-γ (FIG. 10B)): failed to lyse SW480 target cells
- Sensitization of T2 targets for lysis (in words) [7]: failed to stimulate lysis
